# Results: PubChem BioAssay (NCI)
#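 Cultured in 96-well plates, cells were exposed to test compound for 48 hours across five concentrations. TGI: total growth inhibition.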
# Tested on: P388 leukemia
# Assay: NCI tumour cell line growth inhibition, 48 h
smiles,measurement,value
Nc1ncnc2c(C3OC(CO)C(O)C3O)[nH]nc12 (stereo unspecified),TGI,51.7 µM
